The source of these data is ChEMBL document CHEMBL1201862, “PubChem BioAssay data set” (2004).

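Tested at 5 concentrations; 48 h exposure; 96-well plates; endpoints linearly interpolated, else capped at highest concentration. GI50 = concentration required for 50% inhibition of growth.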 Calls of active or inactive are those of the source. No stated cut-off is given here; in the data, active = GI50 up to about 1.1 µM and inactive = higher. A value given as a limit tells only on which side of the number the result lay.

Test systems include HCT-15; IGROV-1; A549; HL-60; U-251; MDA-MB-231; NCI-H226; HCT-116; SW-620; UACC-62; HOP-62; TK-10; DU-145; Hs-578T; SR; NCI-H460; Malme-3M; COLO 205; RPMI-8226; K562.
What all share (test): DTP human tumour cell line panel, 48 h

In general, GI50 refers to the concentration giving 50% growth inhibition. Regarding `CC(=O)Nc1cc(Cl)cc(Cl)c1O`, the GI50 with HCT-15 is over 100 µM; in the assay with IGROV-1, > 100 µM (inactive); in the assay on A549 it was > 100 µM (inactive); with HL-60, > 100 µM (inactive); in the assay with U-251, > 100 µM (inactive); in the assay on MDA-MB-231, > 100 µM (inactive). For the same compound, the GI50 in the assay on NCI-H226, with HCT-116, with SW-620, with UACC-62, in the assay with HOP-62 and in the assay with TK-10 was > 100 µM (inactive) throughout. For the same compound, the GI50 with DU-145, in the assay with Hs-578T, with SR, in the assay with NCI-H460, in the assay with Malme-3M and with COLO 205 was > 100 µM (inactive) in each case. The GI50 with RPMI-8226 and with K562 was > 100 µM (inactive) throughout.

For the compound `CCN(CC)C(=S)N/N=C1\C(=O)Nc2ccccc21`, the GI50 in the assay with HCT-15 was 0.413 µM; with IGROV-1, 0.239 µM (active); in the assay with A549, 0.638 µM (active); in the assay on HL-60, 0.338 µM (active); in the assay on U-251, 1.41 µM (inactive); in the assay on MDA-MB-231, 1.14 µM (inactive). For the same compound, the GI50 in the assay on NCI-H226 is 0.59 µM (active); in the assay on HCT-116, 0.386 µM (active); in the assay with SW-620, 0.493 µM (active); in the assay on UACC-62 it was 1.31 µM (inactive); in the assay with HOP-62 it was 0.431 µM (active); in the assay on TK-10, 0.348 µM (active). The GI50 with DU-145 was > 100 µM (inactive); with Hs-578T it was 0.771 µM (active); with SR, 0.968 µM (active); in the assay with NCI-H460, 0.406 µM (active); with Malme-3M, 0.298 µM (active); in the assay with COLO 205 it was 0.659 µM (active). The 50% growth inhibitory concentration (GI50) is 0.355 µM (active) in the assay on RPMI-8226 and 0.562 µM (active) with K562.
